The results in this text go back to patent publication US11787780B2 (CORCEPT THERAPEUTICS INCORPORATED, priority 2020, dated 2023).

This assay relates to induction of TAT by dexamethasone in HepG2 cells. Kind of assay: Hep G2 TAT assay (inhibition of dexamethasone-induced TAT). The following applies: challenge of 100 nM dexamethasone, IC50 converted to Ki by Cheng and Prusoff equation. It counts as cell-based, human. How it is done:
Glucocorticoid mediated activation of TAT occurs by transactivation of glucocorticoid response elements in the TAT promoter by glucocorticoid receptor-agonist complex. The following protocol describes an assay for measuring induction of TAT by dexamethasone in HepG2 cells (a human liver hepatocellular carcinoma cell line; ECACC, UK).
TAT activity was measured as outlined in the literature by A. Ah et al., J. Med. Chem., 2004, 47, 2441-2452.
HepG2 cells were cultured using MEME media supplemented with 10% (v/v) foetal bovine serum; 2 mM L-glutamine and 1% (v/v) NEAA at 37° C., 5%/95% (v/v) CO2/air. The HepG2 cells were counted and adjusted to yield a density of 0.125×10^6 cells/ml in RPMI 1640 without phenol red, 10% (v/v) charcoal stripped FBS, 2 mM L-glutamine and seeded at 25,000 cells/well in 200 μl into 96 well, sterile, tissue culture micro titre plates, and incubated at 37° C., 5% CO2 for 24 hours
Growth media was removed and replaced with assay media {RPMI 1640 without phenol red, 2 mM L-glutamine+10 μM forskolin}. Test compounds were screened against a challenge of 100 nM dexamethasone. Compounds were serially half log diluted in 100% (v/v) dimethylsulphoxide from a 10 mM stock.
Test compounds were pre-incubated with cells in micro-titre plates for 30 minutes at 37° C., 5/95 (v/v) CO2/air, before the addition of 100 nM dexamethasone and then subsequently for 20 hours to allow optimal TAT induction.
HepG2 cells were then lysed with 30 μl of cell lysis buffer containing a protease inhibitor cocktail for 15 minutes at 4° C. […] After 2 hours incubation at 37° C. the reaction was terminated by the addition of 15 μl of 10M aqueous potassium hydroxide solution, and the plates incubated for a further 30 minutes at 37° C. The TAT activity product was measured by absorbance at λ 340 nm.
[compound] and fitting the data to a 4 parameter logistic equation. IC50 values were converted to Ki (equilibrium dissociation constant) using the Cheng and Prusoff equation, assuming the antagonists were competitive inhibitors with respect to dexamethasone.
The term Ki denotes a dissociation constant, usually derived from enzyme kinetics or from competition with a known ligand. A higher Ki goes with weaker binding. Regarding `CCCn1cc(N(C)S(=O)(=O)C2CCN(c3cc4cnn(-c5ccc(F)cc5)c4cc3C)C2)cn1` (stereo not shown) [Example 30, 1-(1-(4-fluorophenyl)-6-methyl-1H-indazol-5-yl)-N-methyl-N-(1-propyl-1H-pyrazol-4-yl)pyrrolidine-3-sulfonamide], the Ki was found to be 0.206 µM. In the case of `Cc1cc2c(cnn2-c2ccc(F)cc2)cc1C1(Cc2nccs2)CCN(S(=O)(=O)c2cnn(C)c2)C1` (stereo not shown) [Example 188] it was 0.173 µM; in that of `Cc1cc(-n2ncc3cc(C4(Cc5ccccc5)CCN(S(=O)(=O)c5cnn(C)n5)C4)c(C)cc32)ccn1` (stereo not shown) [Example 240, 5-(3-benzyl-1-((2-methyl-2H-1,2,3-triazol-4-yl)sulfonyl)pyrrolidin-3-yl)-6-methyl-1-(2-methylpyridin-4-yl)-1H-indazole], 0.073 µM; in that of `Cc1cc2c(cnn2-c2ccc(F)cc2)cc1C1(Cc2ccccc2)CCN(S(=O)(=O)c2cn(C)cn2)C1` (stereo not shown) [Example 210, 5-(3-benzyl-1-((1-methyl-1H-imidazol-4-yl)sulfonyl)pyrrolidin-3-yl)-1-(4-fluorophenyl)-6-methyl-1H-indazole], 0.041 µM. For `C#CCC1(c2cc3cnn(-c4ccc(F)cc4)c3cc2C)CCN(S(=O)(=O)c2cnn(C)c2)C1` (stereo not shown) [Example 185] the value was 0.164 µM; for `Cc1cc2c(cnn2-c2ccc(F)cc2)cc1C1(COc2ccccc2)CCN(S(=O)(=O)c2cnn(C)c2)C1` (stereo not shown) [Example 344, 1-(4-fluorophenyl)-6-methyl-5-(1-((1-methyl-1H-pyrazol-4-yl)sulfonyl)-3-(phenoxymethyl)pyrrolidin-3-yl)-1H-indazole], 0.097 µM; for `Cc1cc2c(cnn2-c2ccc(F)cc2)cc1C1(CCCc2ccccc2)CCN(S(=O)(=O)c2cnn(C)c2)C1` (stereo not shown) [Example 346, 1-(4-fluorophenyl)-6-methyl-5-(1-((1-methyl-1H-pyrazol-4-yl)sulfonyl)-3-(3-phenylpropyl)pyrrolidin-3-yl)-1H-indazole], 0.14 µM.

`Cn1ncc(S(=O)(=O)N2CCC(Cc3ccccc3)(c3cc4cnn(-c5ccc(F)cc5)c4cc3C#N)C2)n1` (stereo not shown) [Example 334, 5-(3-benzyl-1-((2-methyl-2H-1,2,3-triazol-4-yl)sulfonyl)pyrrolidin-3-yl)-1-(4-fluorophenyl)-1H-indazole-6-carbonitrile] registered an inhibitory constant (Ki) of 0.052 µM. For `Cc1cc2c(cnn2-c2ccc(F)cc2)cc1C1(Cc2ccccc2)CCN(C(=O)c2ccsc2)C1` (stereo not shown) [Example 203, (3-benzyl-3-(1-(4-fluorophenyl)-6-methyl-1H-indazol-5-yl)pyrrolidin-1-yl)(thiophen-3-yl)methanone] the value was 0.021 µM. `CCCn1cc(S(=O)(=O)N2C[C@H](C)N(c3cc4cnn(-c5ccc(F)cc5)c4cc3C)C[C@H]2C)cn1` [Example 82] had a Ki of 0.065 µM. For `C#CCC1(c2cc3cnn(-c4ccc(F)cc4)c3cc2C)CCN(S(C)(=O)=O)C1` (stereo not shown) [Example 184] the value was 0.252 µM. `COc1cc(OCCCC(=O)N2CCC(Cc3ccccc3)(c3cc4cnn(-c5ccc(F)cc5)c4cc3C)C2)ccc1CO` (stereo not shown) [Example 199, 1-(3-benzyl-3-(1-(4-fluorophenyl)-6-methyl-1H-indazol-5-yl)pyrrolidin-1-yl)-4-(4-(hydroxymethyl)-3-methoxyphenoxy)butan-1-one] had a Ki of 0.033 µM. Regarding `Cc1cc2c(cnn2-c2ccc(F)cc2)cc1C1(CC#Cc2ccccc2)CCN(S(=O)(=O)c2cnn(C)c2)C1` (stereo not shown) [Example 211, 1-(4-fluorophenyl)-6-methyl-5-(1-((1-methyl-1H-pyrazol-4-yl)sulfonyl)-3-(3-phenylprop-2-yn-1-yl)pyrrolidin-3-yl)-1H-indazole], the affinity, expressed as Ki, was 0.047 µM.

For the molecule `Cc1cc2c(cnn2-c2ccc(=O)n(C)c2)cc1C1(Cc2ccccc2)CCN(S(=O)(=O)c2cnn(CC(C)C)c2)C1` (stereo not shown) [Example 319, 5-(5-(3-benzyl-1-((1-isobutyl-1H-pyrazol-4-yl)sulfonyl)pyrrolidin-3-yl)-6-methyl-1H-indazol-1-yl)-1-methylpyridin-2(1H)-one], the Ki came to 0.046 µM. For `Cc1cc2c(cnn2-c2cc(C#N)c(=O)n(C)c2)cc1C1(Cc2ccccc2)CCN(S(=O)(=O)c2cnn(C)n2)C1` (stereo not shown) [Example 245, 5-(5-(3-benzyl-1-((2-methyl-2H-1,2,3-triazol-4-yl)sulfonyl)pyrrolidin-3-yl)-6-methyl-1H-indazol-1-yl)-1-methyl-2-oxo-1,2-dihydropyridine-3-carbonitrile] the value was 0.19 µM; for `Cc1cc2c(cnn2-c2ccc(F)cc2)cc1C1(Cc2ccccc2)CCN(C(=O)c2ccnnc2)C1` (stereo not shown) [Example 195, (3-benzyl-3-(1-(4-fluorophenyl)-6-methyl-1H-indazol-5-yl)pyrrolidin-1-yl)(pyridazin-4-yl)methanone], 0.07 µM.

Molecule `COc1cc2c(cnn2-c2ccc(F)cc2)cc1C1(Cc2ccc(F)cc2)CCN(S(=O)(=O)C2CC2)C1` (stereo not shown) [Example 220, 5-(1-(cyclopropylsulfonyl)-3-(4-fluorobenzyl)pyrrolidin-3-yl)-1-(4-fluorophenyl)-6-methoxy-1H-indazole] had a Ki of 0.024 µM. Take `Cc1cc2c(cnn2-c2ccc(F)cc2)cc1C1(Cc2ccccc2)CCN(C(=O)c2cncnc2)C1` (stereo not shown) [Example 196, (3-benzyl-3-(1-(4-fluorophenyl)-6-methyl-1H-indazol-5-yl)pyrrolidin-1-yl)(pyrimidin-5-yl)methanone]: the inhibition constant (Ki) was 0.079 µM. For `Cc1cc2c(cnn2-c2ccc(=O)n(C(C)C)c2)cc1C1(Cc2ccccc2)CCN(S(=O)(=O)c2cnn(C)n2)C1` (stereo not shown) [Example 269, 5-(5-(3-benzyl-1-((2-methyl-2H-1,2,3-triazol-4-yl)sulfonyl)pyrrolidin-3-yl)-6-methyl-1H-indazol-1-yl)-1-isopropylpyridin-2(1H)-one] the value was 1.3 µM; for `CCn1cc(-n2ncc3cc(C4(Cc5ccccc5)CCN(S(=O)(=O)c5cnn(C)n5)C4)c(C)cc32)ccc1=O` (stereo not shown) [Example 268, 5-(5-(3-benzyl-1-((2-methyl-2H-1,2,3-triazol-4-yl)sulfonyl)pyrrolidin-3-yl)-6-methyl-1H-indazol-1-yl)-1-ethylpyridin-2(1H)-one], 0.16 µM. For `C#CCC1(c2cc3cnn(-c4ccc(F)cc4)c3cc2C)CCN(S(=O)(=O)c2cnn(CCC)c2)C1` (stereo not shown) [Example 186] the value was 0.037 µM; for `COc1cc2c(cnn2-c2ccc(F)cc2)cc1C1(Cc2ccccc2)CCN(C(=O)c2cscn2)C1` (stereo not shown) [Example 230, (3-benzyl-3-(1-(4-fluorophenyl)-6-methoxy-1H-indazol-5-yl)pyrrolidin-1-yl)(thiazol-4-yl)methanone], 0.074 µM; for `Cc1cc2c(cnn2-c2ccc(=O)n(C)c2)cc1C1(Cc2ccccc2)CCN(S(=O)(=O)c2cnn(C3CCC3)c2)C1` (stereo not shown) [Example 279, 5-(5-(3-benzyl-1-((1-cyclobutyl-1H-pyrazol-4-yl)sulfonyl)pyrrolidin-3-yl)-6-methyl-1H-indazol-1-yl)-1-methylpyridin-2(1H)-one], 0.05 µM. In the case of `Cc1cc2c(cnn2-c2ccc(=O)n(C)c2)cc1C1(Cc2ccccc2)CCN(S(=O)(=O)c2cnn(C)c2C)C1` (stereo not shown) [Example 284, 5-(5-(3-benzyl-1-((1,5-dimethyl-1H-pyrazol-4-yl)sulfonyl)pyrrolidin-3-yl)-6-methyl-1H-indazol-1-yl)-1-methylpyridin-2(1H)-one] it was 0.058 µM; in that of `CCCn1cc(S(=O)(=O)N2C[C@H]3CN(c4cc5cnn(-c6ccc(F)cc6)c5cc4C)C[C@H]3C2)cn1` [Example 93], 0.216 µM. `CCc1cc2c(cnn2-c2ccc(=O)n(C)c2)cc1C1(Cc2ccccc2)CCN(S(=O)(=O)c2cnn(C)n2)C1` (stereo not shown) [Example 333, 5-(5-(3-benzyl-1-((2-methyl-2H-1,2,3-triazol-4-yl)sulfonyl)pyrrolidin-3-yl)-6-ethyl-1H-indazol-1-yl)-1-methylpyridin-2(1H)-one] returned a Ki of 0.041 µM. In turn, `CCCn1cc(S(=O)(=O)N2C[C@H](C)N(c3cc4cnn(-c5ccc(F)cc5)c4cc3C)C[C@@H]2C)cn1` [Example 81] yielded a Ki of 0.058 µM.

Regarding `COCCn1cc(S(=O)(=O)N2CCC(Cc3ccccc3)(c3cc4cnn(-c5ccc(=O)n(C)c5)c4cc3C)C2)cn1` (stereo not shown) [Example 281, 5-(5-(3-benzyl-1-((1-(2-methoxyethyl)-1H-pyrazol-4-yl)sulfonyl)pyrrolidin-3-yl)-6-methyl-1H-indazol-1-yl)-1-methylpyridin-2(1H)-one], the Ki is 0.075 µM. As for `Cc1cc2c(cnn2-c2cccc(C(=O)NC3CCOC3)c2)cc1C1=CCN(S(C)(=O)=O)CC1` (stereo not shown) [Example 146], the Ki stood at 0.942 µM. In the case of `Cc1cc2c(cnn2-c2ccc(F)cc2)cc1N1CCN(S(=O)(=O)c2cnn(C3CCOC3)c2)C2(CC2)C1` (stereo not shown) [Example 79] it was 0.084 µM.

The molecule `CCCn1cc(S(=O)(=O)N2CCN(c3cc(C)c4c(cnn4-c4ccc(F)cc4)c3)CC23CC3)cn1` [Example 80] came in with a Ki of 0.536 µM.
